Format in all cases: in vivo
For assay [1], the system named is AMAPA. As to the kind of experiment: Pre-emergence biological efficacy. Conditions: Amaranthus palmeri, 312 h, evaluated after 13 days, read-out: damage to plant (100=total damage to plant; 0=no damage to plant). The essentials: (§1)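 Injury rating (0 = no damage, 100 = plant killed) taken 13 days after a single spray of compound at the chosen dose onto freshly sown pots held 1 day in the glasshouse beforehand.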

For assay [2], the system named is ECHCG. Put plainly: Pre-emergence biological efficacy. Conditions: Echinochloa crus-galli, 312 h, evaluated after 13 days, read-out: damage to plant (100=total damage to plant; 0=no damage to plant). The essentials:
as §1

Assay [3] has as its system EPHHL. As to the kind of experiment: Pre-emergence biological efficacy. Conditions: Euphorbia heterophylla, 312 h, evaluated after 13 days, read-out: damage to plant (100=total damage to plant; 0=no damage to plant). The essentials: as §1
Assay [4] relates to IPOHE. As to the kind of experiment: Pre-emergence biological efficacy. The settings on record: Ipomoea hederacea, 312 h, evaluated after 13 days, read-out: damage to plant (100=total damage to plant; 0=no damage to plant). The essentials: as §1
Assay [5] deals with LOLPE. Put plainly: Pre-emergence biological efficacy. Conditions: Lolium perenne, 312 h, evaluated after 13 days, read-out: damage to plant (100=total damage to plant; 0=no damage to plant). The essentials: as §1
Assay [6] has as its system SETFA. Put plainly: Pre-emergence biological efficacy. Conditions: Setaria faberi, 312 h, evaluated after 13 days, read-out: damage to plant (100=total damage to plant; 0=no damage to plant). The essentials: as §1
The subject of assay [7] is AMAPA. As to the kind of experiment: Post-emergence biological efficacy. Conditions: Amaranthus palmeri, 312 h, evaluated after 13 days, read-out: damage to plant (100=total damage to plant; 0=no damage to plant). Put shortly: (§2)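 Pot-grown plants were raised 14 days in a glasshouse (24/19 °C day/night, 16 h light), then sprayed post-emergence with an aqueous dilution of a 50 g/l IF50 formulation stock in 0.2% Genapol XO80. They were kept at 24/18 °C, 15 h light, 50% humidity, and visually scored for damage after 13 days (0 = none, 100 = total).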

In another assay the test system is CHEAL. Put plainly: Post-emergence biological efficacy. Conditions: Chenopodium album, 312 h, evaluated after 13 days, read-out: damage to plant (100=total damage to plant; 0=no damage to plant). Put shortly:
as §2

The subject of another assay is DIGSA. Put plainly: Post-emergence biological efficacy. The settings on record: Digitaria sanguinalis, 312 h, evaluated after 13 days, read-out: damage to plant (100=total damage to plant; 0=no damage to plant). The essentials:
as §2

Assay [8] has as its system ECHCG. Put plainly: Post-emergence biological efficacy. The settings on record: Echinochloa crus-galli, 312 h, evaluated after 13 days, read-out: damage to plant (100=total damage to plant; 0=no damage to plant). The essentials:
as §2

Another assay relates to ELEIN. As to the kind of experiment: Post-emergence biological efficacy. Conditions: 312 h, evaluated after 13 days, read-out: damage to plant (100=total damage to plant; 0=no damage to plant). Put shortly: as §2
Assay [9] concerns EPHHL. As to the kind of experiment: Post-emergence biological efficacy. The settings on record: Euphorbia heterophylla, 312 h, evaluated after 13 days, read-out: damage to plant (100=total damage to plant; 0=no damage to plant). The essentials:
as §2

In assay [10] the test system is IPOHE. Put plainly: Post-emergence biological efficacy. The settings on record: Ipomoea hederacea, 312 h, evaluated after 13 days, read-out: damage to plant (100=total damage to plant; 0=no damage to plant). The essentials: as §2
The test system of assay [11] is LOLPE. Put plainly: Post-emergence biological efficacy. The settings on record: Lolium perenne, 312 h, evaluated after 13 days, read-out: damage to plant (100=total damage to plant; 0=no damage to plant). The essentials:
as §2

Assay [12] concerns SETFA. Put plainly: Post-emergence biological efficacy. Conditions: Setaria faberi, 312 h, evaluated after 13 days, read-out: damage to plant (100=total damage to plant; 0=no damage to plant). The essentials: as §2

The structures appear in SMILES notation.

As for `CCOC(=O)C1(C)CC(c2cc(-c3cncc(OC)c3)c(F)cc2Cl)=NO1` (stereo not drawn) [Compound 1-379, Ethyl 3-[2-chloro-4-fluoro-5-(5-methoxy-3-pyridyl)-phenyl]-5-methyl-4H-isoxazole-5-carboxylate], the pest or weed control at 250 g/ha in the assay on AMAPA [1], in the assay on ECHCG [2], in the assay on EPHHL [3], in the assay with IPOHE [4], in the assay on LOLPE [5] and in the assay with SETFA [6] was 0% throughout. Moreover, the pest or weed control at 250 g/ha turned out to be 100% in the assay on AMAPA [7]; 50% with CHEAL; 60% in the assay on DIGSA; 40% with ECHCG [8]; 40% in the assay with ELEIN; 50% in the assay on EPHHL [9]. Moreover, the figures for the pest or weed control at 250 g/ha with IPOHE [10], with LOLPE [11] and in the assay with SETFA [12] were 80%, 10% and 40%, respectively.
As for `CCOC(=O)C1(C)CC(c2cc(-c3ncc(Br)cc3Cl)c(F)cc2Cl)=NO1` (stereo not drawn) [Compound 1-559, Ethyl 3-[5-(5-bromo-3-chloro-2-pyridyl)-2-chloro-4-fluoro-phenyl]-5-methyl-4H-isoxazole-5-carboxylate], the pest or weed control at 250 g/ha in the assay with AMAPA [1] was 100%; with ECHCG [2] it was 90%; with EPHHL [3] it was 50%; in the assay on IPOHE [4], 10%; with LOLPE [5] it was 50%; in the assay on SETFA [6], 80%. Moreover, the pest or weed control at 250 g/ha is 100% in the assay on AMAPA [7]; 100% in the assay on CHEAL; 80% with DIGSA; 100% in the assay with ECHCG [8]; 90% in the assay with ELEIN; 100% in the assay with EPHHL [9]. For the same compound, the pest or weed control at 250 g/ha turned out to be 100% in the assay on IPOHE [10], 90% in the assay on LOLPE [11] and 100% with SETFA [12].
Regarding `CCOC(=O)C1(C)CC(c2cc(-c3ncc([N+](=O)[O-])cc3Cl)c(F)cc2Cl)=NO1` (stereo not drawn) [Compound 1-355, Ethyl 3-[2-chloro-5-(3-chloro-5-nitro-2-pyridyl)-4-fluoro-phenyl]-5-methyl-4H-isoxazole-5-carboxylate], the pest or weed control at 250 g/ha is 0% in the assay with AMAPA [1]; 10% in the assay with ECHCG [2]; 20% in the assay on EPHHL [3]; 20% with IPOHE [4]; 20% in the assay on LOLPE [5]; 10% with SETFA [6]. Moreover, the pest or weed control at 250 g/ha in the assay with AMAPA [7] amounted to 100%; with CHEAL, 60%; in the assay on DIGSA, 50%; in the assay on ECHCG [8] it was 50%; with ELEIN, 50%; in the assay on EPHHL [9], 80%. Also, the pest or weed control at 250 g/ha in the assay with IPOHE [10] is 70%; with LOLPE [11], 50%; in the assay with SETFA [12], 40%.
Turning to `CCOC(=O)C1(C)CC(c2cc(-c3cnc(F)c(F)c3)c(F)cc2Cl)=NO1` (stereo not drawn) [Compound 1-391, Ethyl 3-[2-chloro-5-(5,6-difluoro-3-pyridyl)-4-fluoro-phenyl]-5-methyl-4H-isoxazole-5-carboxylate], the pest or weed control at 250 g/ha in the assay with AMAPA [1], in the assay on ECHCG [2], in the assay with EPHHL [3], in the assay on IPOHE [4], in the assay on LOLPE [5] and with SETFA [6] was 0% throughout. The pest or weed control at 250 g/ha in the assay on AMAPA [7] worked out at 60%; in the assay with CHEAL, 50%; with DIGSA, 50%; with ECHCG [8], 40%; in the assay on ELEIN, 40%; in the assay on EPHHL [9] it was 50%. Moreover, the pest or weed control at 250 g/ha in the assay with IPOHE [10] came out at 40%; in the assay with LOLPE [11], 10%; in the assay with SETFA [12] it was 40%.
Consider `CCOC(=O)C1(C)CC(c2cc(-c3ccncc3)c(F)cc2Cl)=NO1` (stereo not drawn) [Compound 1-487, Ethyl 3-[2-chloro-4-fluoro-5-(4-pyridyl)-phenyl]-5-methyl-4H-isoxazole-5-carboxylate], for which the pest or weed control at 250 g/ha in the assay with AMAPA [1], in the assay on ECHCG [2], in the assay with EPHHL [3], in the assay on IPOHE [4], with LOLPE [5] and in the assay with SETFA [6] was 0% throughout. The pest or weed control at 250 g/ha in the assay with AMAPA [7] worked out at 30%; in the assay with CHEAL it was 0%; in the assay with DIGSA, 0%; in the assay on ECHCG [8], 0%; with ELEIN, 0%; with EPHHL [9], 0%. The pest or weed control at 250 g/ha in the assay on IPOHE [10], in the assay with LOLPE [11] and with SETFA [12] was 0% throughout.
On to `CCOC(=O)C1(C)CC(c2cc(-c3cnc(F)c(OC)c3)c(F)cc2Cl)=NO1` (stereo not drawn) [Compound 1-415, Ethyl 3-[2-chloro-4-fluoro-5-(6-fluoro-5-methoxy-3-pyridyl)-phenyl]-5-methyl-4H-isoxazole-5-carboxylate], for which the pest or weed control at 250 g/ha in the assay with AMAPA [1], in the assay on ECHCG [2], with EPHHL [3], with IPOHE [4], in the assay with LOLPE [5] and with SETFA [6] was 0% in each case. The pest or weed control at 250 g/ha with AMAPA [7] came to 100%; with CHEAL it was 100%; in the assay with DIGSA, 40%; in the assay on ECHCG [8] it was 70%; with ELEIN, 70%; in the assay on EPHHL [9] it was 90%. The pest or weed control at 250 g/ha in the assay on IPOHE [10] was determined as 90%; in the assay with LOLPE [11], 20%; with SETFA [12], 90%.
For `CCOC(=O)C1(C)CC(c2cc(-c3ncc(C(F)(F)F)cc3F)c(F)cc2Cl)=NO1` (stereo not drawn) [Compound 1-91, Ethyl 3-[2-chloro-4-fluoro-5-[3-fluoro-5-(trifluoromethyl)-2-pyridyl]-phenyl]-5-methyl-4H-isoxazole-5-carboxylate], the pest or weed control at 250 g/ha in the assay with AMAPA [1] was 100%; in the assay on ECHCG [2], 100%; in the assay on EPHHL [3], 100%; in the assay on IPOHE [4], 100%; in the assay with LOLPE [5] it was 90%; in the assay on SETFA [6], 100%. Moreover, the pest or weed control at 250 g/ha with AMAPA [7], in the assay with CHEAL, in the assay with DIGSA, in the assay with ECHCG [8], in the assay on ELEIN and in the assay with EPHHL [9] was 100% throughout. Further, the pest or weed control at 250 g/ha with IPOHE [10], with LOLPE [11] and in the assay on SETFA [12] was 100% throughout.
Turning to `CCOC(=O)C1(C)CC(c2cc(-c3ccc(C(F)(F)F)nc3Cl)c(F)cc2Cl)=NO1` (stereo not drawn) [Compound 1-655, Ethyl 3-[2-chloro-5-[2-chloro-6-(trifluoromethyl)-3-pyridyl]-4-fluoro-phenyl]-5-methyl-4H-isoxazole-5-carboxylate], the pest or weed control at 250 g/ha in the assay with AMAPA [1] was 100%; with ECHCG [2] it was 40%; with EPHHL [3] it was 90%; in the assay on IPOHE [4], 40%; with LOLPE [5], 40%; in the assay with SETFA [6], 30%. In addition, the pest or weed control at 250 g/ha in the assay on AMAPA [7] worked out at 100%; in the assay with CHEAL it was 100%; with DIGSA it was 70%; in the assay with ECHCG [8] it was 90%; in the assay with ELEIN, 80%; in the assay with EPHHL [9], 100%. Moreover, the pest or weed control at 250 g/ha stood at 100% in the assay with IPOHE [10], 80% in the assay with LOLPE [11] and 90% with SETFA [12].

The values above are taken from patent publication US20240124432A1, “HERBICIDAL COMPOUNDS” (SYNGENTA CROP PROTECTION AG, priority 2020, published 2024).
